Measurements: patent US20100021950A1, “SCREENING METHOD FOR ANTI-DIABETIC COMPOUNDS” (priority 2007, published 2010)
Read-outs that look alike come from different tables or passages of the source.

Columns and labels:
mouse pancreatic islets [1] = settings: 10 μM, Gogg et al. (2001); cited from earlier work
mouse pancreatic islets [2] = assay: Insulin secretion from mouse pancreatic islets; assay type: cell-based; settings: 25 mM glucose, 1 h; Fc fusion proteins 4 μg/ml, peroxovanadate 10 μM; compared with Fc
Text: Pancreatic islets were isolated from NMRI mice for all experiments, except for the experiments with male ephrin-A5-/- and control littermates, which were C57BL/6 (Knoll et al. (2001) Development 128, 895). All mice used were 8-10 weeks old. Human pancreatic islets were isolated from a perfused human pancreas by using a protocol approved by the Ethical Research Committee of the Technical University Medical School Dresden and according to the law of the State of Saxony. Mouse and human islets were cultured overnight in Dulbecco's modified Eagle's medium (DMEM) containing 11 mM glucose (Gibco), supplemented with 10% heat inactivated fetal calf serum (FCS), 100U/ml Penicillin, 100 μg/ml Streptomycin, 1.5 g/L NaHCO3 in a humidified atmosphere (5% CO2, 37° C.). […]
For insulin secretion measurements, islets or MIN6 cells were starved for 1 h in Krebs Ringer Buffer (KRB) containing 115 mM NaCl, 5 mM KCl, 1.2 mM KH2PO4, 1 mM MgSO4, 2.5 mM CaCl2, 24 mM NaHCO3, 2 mM glucose, 25 mM HEPES (pH 7.4), and 0.1% bovine serum albumin. […] The amount of secreted insulin was measured in the medium, and islets or MIN6 cells were subsequently dissolved in RIPA buffer to measure insulin content and total protein content. […] Secreted insulin and insulin content were measured by using ultra-sensitive rat insulin ELISA kit (Crystal Chem inc.). The total protein content was measured using BCA kit (Molecular Probes). […]

MIN6 cells = assay: Insulin secretion from MIN6 cells; assay type: cell-based, mouse; settings: 25 mM glucose
Text: MIN6 cells (Miyazaki et al. (1990) Endocrinol. 127, 126) at passages 37-47 were maintained as previously described (Nikolova et al. (2006) Dev. Cell 10, 397). The cells were electroporated with pEGFP, pEGFP-wtEphA5 (Gao et al. (1998) Proc. Natl. Acad. Sci. U.S.A. 95, 5329), pEGFP-DN-EphA5 (Gao et al. (1998) Proc. Natl. Acad. Sci. U.S.A. 95, 5329), pEGFP-ephrin-A5, (Wimmer-Kleikamp et al. (2004) J. Cell Biol. 164, 661), pEGFP-wtRac1, pEGFP-DN-Rac1 (Rac1N17) (Hall (2005) Biochem. Soc. Trans. 33, 891) and pcDNA-Cx36 constructs (Ravier et al. (2005) Diabetes 54, 1798); siRNA against firefly luciferase (control siRNA), ephrin-A5 and Cx36 by using Amaxa nucleofection (Amaxa biosystems).
For insulin secretion measurements, islets or MIN6 cells were starved for 1 h in Krebs Ringer Buffer (KRB) containing 115 mM NaCl, 5 mM KCl, 1.2 mM KH2PO4, 1 mM MgSO4, 2.5 mM CaCl2, 24 mM NaHCO3, 2 mM glucose, 25 mM HEPES (pH 7.4), and 0.1% bovine serum albumin. After starvation, medium was exchanged for the same buffer +/− Fc fusion proteins to measure basal secretion, or for KRB containing 25 mM glucose +/− Fc fusion proteins to measure glucose-stimulated insulin secretion, during 1 h incubation. When Fc fusion proteins were used, islets were continuously shaken (300-500 rpm) to facilitate access of Fc fusion proteins to islet β-cells. The amount of secreted insulin was measured in the medium, and islets or MIN6 cells were subsequently dissolved in RIPA buffer to measure insulin content and total protein content. Secreted insulin was normalized to total insulin content and total protein content, and presented as % of basal control insulin secretion. In all histograms, the first column represents the basal control (=100%), except in FIG. 3C, in which the third column is taken as basal control. Secreted insulin and insulin content were measured by using ultra-sensitive rat insulin ELISA kit (Crystal Chem inc.). The total protein content was measured using BCA kit (Molecular Probes). […]

EphA5 = EphA5 immunoprecipitation and phosphotyrosine Western blot, MIN6 cells; assay type: cell-based, mouse; settings: 10 μM, 25 mM glucose, 5 min
Procedure: MIN6 cells and pancreatic islets were lysed in RIPA buffer, supplemented with protease and phosphatase inhibitors. 1 μg total protein, isolated from MIN6 cell lysates or 500 ng total protein, isolated from islet lysates, were used for immunoprecipitation with 1:1,000-diluted rabbit-anti-EphA5 (Santa Cruz) and protein-A beads (Amersham). For immunoprecipitation/pull-down of Rac1-GTP with Pak1-PBD (P21-activated kinase-1-P21 Binding Domain) and Westem blots, a Rac1 Activation StressXPress Kit (Biomol) was used. The immunoprecipitates were separated on 4-12% gradient SDS-polyacrylamide gels (Invitrogen) and transferred onto a PVDF membrane (Amersham). For western blots, 1:500-diluted rabbit-anti-EphA5 antibody (Santa Cruz), 1:1,000-diluted mouse-anti-PY antibody (Biomol) and 1:200-diluted rabbit-anti-Rac1 antibody (Santa Cruz) were used. 1:10,000-diluted HRP-conjugated donkey-anti-rabbit antibody (Dianova) and 1:5,000-diluted HRP-conjugated goat-anti-mouse antibody (Dianova) were used as secondary antibodies. Western blots were developed using an ECL system (Amersham). The intensities of EphA5 and Rac1 bands were normalized to the intensities of total EphA5 and Rac1, respectively, and presented as % of basal control. The intensities of the bands were quantified by using TotalLab software (Stratagene).

For peroxovanadate, the glucose-stimulated insulin secretion (mouse pancreatic islets [1]) is listed as “strongly reduced”, the glucose-stimulated insulin secretion (mouse pancreatic islets [2]) is listed as “reduced” and the glucose-stimulated insulin secretion (MIN6 cells; confluent MIN6 cells, 1 h, Fc fusion proteins 4 μg/ml, peroxovanadate 10 μM, compared with Fc) is listed as “reduced”. For the same molecule, the “glucose-induced EphA5 dephosphorylation” value (EphA5) was “effectively prevented” and the “EphA5 phosphorylation levels at stimulatory conditions” value (EphA5; relative to basal levels) was “increased”.

B1: wt EphA5: full-length EphA5 protein over-expressed in MIN6 cells from pEGFP-wtEphA5 (protein, UniProt Q60629 1-876, looked up)
chain: MRGSGPRGAGHRRTQGRGGGDDTPRVPASLAGCYSAPLKGPLWTCLLLCAALRTLLASPSNEVNLLDSRTVMGDLGWIAFPKNGWEEIGEVDENYAPIHTYQVCKVMEQNQNNWLLTSWISNEGASRIFIELKFTLRDCNSLPGGLGTCKETFNMYYFESDDENGRSIKENQYIKIDTIAADESFTELDLGDRVMKLNTEVRDVGPLSKKGFYLAFQDVGACIALVSVRVYYKKCPSVVRHLAIFPDTITGADSSQLLEVSGSCVNHSVTDDPPKMHCSAEGEWLVPIGKCMCKAGYEEKNGTCQAPSPVTNVKKGKIAKNSISLSWQEPDRPNGIILEYEIKYFEKDQETSYTIIKSKETSITAEGLKPASVYVFQIRARTAAGYGVFSRRFEFETTPVSVAASNDQSQIPIIAVSVTVGVILLAVMIGFLLSGSCCDCGCGRASSLCAVAHPSLIWRCGYSKAKQDPEEEKMHFHNGHIKLPGVRTYIDPHTYEDPNQAVHEFAKEIEASCITIERVIGAGEFGEVCSGRLKLPGKRELPVAIKTLKVGYTEKQRRDFLGEASIMGQFDHPNIIHLEGVVTKSKPVMIVTEYMENGSLDTFLKKNDGQFTVIQLVGMLRGIAAGMKYLSDMGYVHRDLAARNILINSNLVCKVSDFGLSRVLEDDPEAAYTTRGGKIPIRWTAPEAIAFRKFTSSSDVWSYGIVMWEVVSYGERPYWEMTNQDVIKAVEEGYRLPSPMDCPAALYQLMLDCWQKDRNSRPKFDEIVNMLDKLIRNPSSLKTLVNASSRVSTLLAEHGSLGSGAYRSVGEWLEAIKMGRYTEIFMENGYSSMDAVAQVTLEDLRRLGVTLVGHQKKIMSSLQEMKVQMVNGMVPV
modifications: full-length EGFP fusion
notes: full-length EphA5 protein over-expressed in MIN6 cells from pEGFP-wtEphA5
For B1, the glucose-stimulated insulin secretion (MIN6 cells; over-expression in confluent MIN6 cell monolayers, vs empty vector) was “decreased” and the “glucose-stimulated insulin secretion in PV-treated MIN6 cells” value (MIN6 cells; over-expression, 10 μM peroxovanadate, vs empty vector/PV) was “reduced”.
